# Measured values published in PubChem BioAssay (NCI).
#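 Five compound concentrations were applied to cells in 96-well plates for 48 hours; endpoints were derived by simple linear interpolation of the resulting dose-response curve. At the GI50, growth is halved. TGI denotes the concentration required for complete inhibition of growth.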
# Tests used:
# Assay in all cases: NCI anticancer screen, dose series, 48 h
# [1] = system: 786-0 renal
# [2] = system: A498 renal
# [3] = system: A549 NSCLC
# [4] = system: ACHN renal
# [5] = system: BT-549 breast
# [6] = system: CAKI-1 renal
# [7] = system: CCRF-CEM leukemia
# [8] = system: COLO 205 colon
# [9] = system: DU-145 prostate
# [10] = system: EKVX NSCLC
# [11] = system: HCC-2998 colon
# [12] = system: HCT-116 colon
# [13] = system: HCT-15 colon
# [14] = system: HL-60(TB) leukemia
# [15] = system: HOP-62 NSCLC
# [16] = system: HOP-92 NSCLC
# [17] = system: HS 578T breast
# [18] = system: HT29 colon
# [19] = system: IGROV1 ovarian
# [20] = system: K-562 leukemia
# [21] = system: KM12 colon
# [22] = system: LOX IMVI melanoma
# [23] = system: M14 melanoma
# [24] = system: MALME-3M melanoma
# [25] = system: MCF7 breast
# [26] = system: MDA-MB-231 breast
# [27] = system: MDA-MB-435
# [28] = system: MOLT-4 leukemia
# [29] = system: NCI-H226 lung
# [30] = system: NCI-H23 lung
# [31] = system: NCI-H460 lung
# [32] = system: NCI-H522 lung
# [33] = system: NCI/ADR-RES ovarian
# [34] = system: OVCAR-3 ovarian
# [35] = system: OVCAR-4 ovarian
# [36] = system: OVCAR-5 ovarian
# [37] = system: OVCAR-8 ovarian
# [38] = system: PC-3 prostate
# [39] = system: RPMI-8226 leukemia
# [40] = system: RXF 393 renal
# [41] = system: SF-268 CNS
# [42] = system: SF-295 CNS
# [43] = system: SK-MEL-2 melanoma
# [44] = system: SK-MEL-28 melanoma
# [45] = system: SK-OV-3 ovarian
# [46] = system: SN12C renal
# [47] = system: SNB-19 CNS
# [48] = system: SNB-75 CNS
# [49] = system: SR leukemia
# [50] = system: SW-620 colon
# [51] = system: T-47D breast
# [52] = system: TK-10 renal
# [53] = system: U251 CNS
# [54] = system: UACC-257 melanoma
# [55] = system: UACC-62 melanoma
# [56] = system: UO-31 renal
smiles,measurement,setting,value
COc1ccc(CNS(=O)(=O)/N=C2\NC(=O)NC2=C(Cl)Cl)cc1,GI50,[1],1.88 µM
same,TGI,[1],> 100 µM
same,GI50,[2],1.22 µM
same,TGI,[2],5.39 µM
same,GI50,[3],3.48 µM
same,TGI,[3],> 100 µM
same,GI50,[4],3.59 µM
same,TGI,[4],> 100 µM
same,GI50,[5],0.981 µM
same,TGI,[5],12.2 µM
same,GI50,[6],3.05 µM
same,TGI,[6],73.3 µM
same,GI50,[7],0.364 µM
same,TGI,[7],16.2 µM
same,GI50,[8],2.21 µM
same,TGI,[8],5.1 µM
same,GI50,[9],3.22 µM
same,TGI,[9],> 100 µM
same,GI50,[10],4.39 µM
same,TGI,[10],> 100 µM
same,GI50,[11],3.2 µM
same,TGI,[11],10.4 µM
same,GI50,[12],0.531 µM
same,TGI,[12],> 100 µM
same,GI50,[13],3.19 µM
same,TGI,[13],11.6 µM
same,GI50,[14],0.756 µM
same,TGI,[14],5.64 µM
same,GI50,[15],0.621 µM
same,TGI,[15],> 100 µM
same,GI50,[16],0.48 µM
same,TGI,[16],10.4 µM
same,GI50,[17],2.09 µM
same,TGI,[17],> 100 µM
same,GI50,[18],1.67 µM
same,TGI,[18],> 100 µM
same,GI50,[19],3.3 µM
same,TGI,[19],22 µM
same,GI50,[20],1.64 µM
same,TGI,[20],> 100 µM
same,GI50,[21],0.327 µM
same,TGI,[21],> 100 µM
same,GI50,[22],0.386 µM
same,TGI,[22],10.8 µM
same,GI50,[23],3.02 µM
same,TGI,[23],> 100 µM
same,GI50,[24],5.62 µM
same,TGI,[24],22.7 µM
same,GI50,[25],0.348 µM
same,TGI,[25],> 100 µM
same,GI50,[26],1.92 µM
same,TGI,[26],8.31 µM
same,GI50,[27],1.36 µM
same,TGI,[27],4.33 µM
same,GI50,[28],0.435 µM
same,TGI,[28],59.2 µM
same,GI50,[29],2.03 µM
same,TGI,[29],5.51 µM
same,GI50,[30],3.8 µM
same,TGI,[30],17.7 µM
same,GI50,[31],2.82 µM
same,TGI,[31],> 100 µM
same,GI50,[32],2.07 µM
same,TGI,[32],14.2 µM
same,GI50,[33],2.93 µM
same,TGI,[33],> 100 µM
same,GI50,[34],1.59 µM
same,TGI,[34],17.5 µM
same,GI50,[35],4.47 µM
same,TGI,[35],> 100 µM
same,GI50,[36],3.23 µM
same,TGI,[36],> 100 µM
same,GI50,[37],3.38 µM
same,TGI,[37],> 100 µM
same,GI50,[38],2.61 µM
same,TGI,[38],> 100 µM
same,GI50,[39],0.352 µM
same,TGI,[39],5.21 µM
same,GI50,[40],1.71 µM
same,TGI,[40],6.79 µM
same,GI50,[41],0.541 µM
same,TGI,[41],> 100 µM
same,GI50,[42],2.85 µM
same,TGI,[42],> 100 µM
same,GI50,[43],6.27 µM
same,TGI,[43],42.8 µM
same,GI50,[44],8.08 µM
same,TGI,[44],22 µM
same,GI50,[45],8.22 µM
same,TGI,[45],> 100 µM
same,GI50,[46],0.811 µM
same,TGI,[46],> 100 µM
same,GI50,[47],1.14 µM
same,TGI,[47],> 100 µM
same,GI50,[48],1.34 µM
same,TGI,[48],> 100 µM
same,GI50,[49],2.86 µM
same,TGI,[49],22.8 µM
same,GI50,[50],2.45 µM
same,TGI,[50],16.6 µM
same,GI50,[51],2.4 µM
same,TGI,[51],> 100 µM
same,GI50,[52],6.55 µM
same,TGI,[52],> 100 µM
same,GI50,[53],1.7 µM
same,TGI,[53],14.6 µM
same,GI50,[54],10.7 µM
same,TGI,[54],68.6 µM
same,GI50,[55],2.89 µM
same,TGI,[55],18.2 µM
same,GI50,[56],5.13 µM
same,TGI,[56],> 100 µM
